Assays:
pre-miR-21 [1] = assay: In vitro RNase L cleavage of pre-miR-21 (FRET sensor, gel mapping); type: biochemical
Protocol: In Vitro Fluorescent RNA Cleavage. A model RNA hairpin^15 labeled with a 5′ 6-Fluorescein (6FAM) and 3′ Black Hole Quencher (IQ4) (5′ 6FAM-[…]-3′ IQ4; 5′ FAM/3′ BHQ model RNA) (SEQ ID NO: 3) or a miR-21 Hairpin Precursor RNA labeled with a 5′ 6-Fluorescein (6FAM) and 3′ Black Hole Quencher (IQ4) (5′ 6FAM-[…] […]-3′ IQ4; 5′ FAM/3′ BHQ miR-21 Hairpin Precursor RNA) (SEQ ID NO: 4) was purchased from Chemgenes with HPLC purification. Solutions of RNA (100 nM) were folded at 65° C. for 5 min and slowly cooled to room temperature in 1×RNase L Buffer (25 mM Tris-HCl, pH 7.4, 100 mM KCl) without MgCl2, β-mercaptoethanol or ATP. After folding, the RNA was supplemented with 10 mM MgCl2, fresh 7 mM β-mercaptoethanol, and 50 μM of ATP. Next, 100 nM of RNase L, prepared as described previously^22, and various concentrations of screening compounds were prepared in 1×RNase L Buffer and added to the RNA. […] The samples were incubated at room temperature for 60 min after which the fluorescence intensity (Ex: 485 nm, Em: 525 nm) was measured using a SpectraMax M5 plate reader or Biotek FLx800 plate reader. The percentage change in fluorescence intensity, where enhancement of fluorescence intensity was indicative of RNA cleavage, was determined by calculating the percentage change in sample fluorescent signals relative to the untreated fluorescent signal (Fi, %). […]

pre-miR-21 [2] = assay: Measurement of catalytic activity in MDA-MB-231 cells; type: cell-based, human
Protocol: Measurement of Catalytic Activity. The MDA-MB-231 cells were plated into a 24-well plates (Corning). At ˜80% confluency, the media was aspirated and the cell monolayer was washed with 1×DPBS. Cells were then incubated with 5 (500 nM) or vehicle (DMSO) diluted in cell culture medium for 24 h. Cells were then lysed using 250 μL of RNA Lysis Buffer from a Quick-RNA MiniPrep Kit (Zymo Research). A 100 μL aliquot was transferred to black, non-binding surface, half area 96-well plates (Corning). Fractions of untreated cell lysate were combined and used to generate a standard curve of 5 in cell lysate, by spiking in known concentrations of 5. Fluorescence intensity (Ex: 345 nm, Em: 460 nm) was then measured on a Molecular Devices SpectraMax M5 plate reader to determine compound concentration in cell lysate. Using the generated standard curve, the concentration of 5 in the […] cell lysate aliquot was then used to extrapolate the amount of 5 in pmol in the full 250 μL volume.
RNA was extracted from the cell lysates, followed by RT-qPCR as described above. A standard curve was generated for the pre-miR-21 WT transcript using in vitro transcribed pre-miR-21 (10 ng, 1 ng, 0.1 ng, 0.01 ng, 0.001 ng, 0.0001 ng, 0 ng) completed with each run to accurately calibrate Ct values. The amount of cleaved pre-miR-21 was then calculated by taking the difference between the pmol of pre-miR-21 in untreated samples and the pmol of pre-miR-21 in 5-treated samples. Catalytic activity, or turnover, was calculated by taking the ratio of the pmol of cleaved pre-miR-21 and the pmol of 5 in the sample.

IFN-γ = IFN-γ ELISA of MDA-MB-231 supernatant; type: cell-based, human
Protocol: Measurement of IFN-γ: The MDA-MB-231 cells were plated into a 24-well plate and allowed to grow to 70% confluency. Cells were transfected with 2′-5′ A4 using Lipofectamine RNAiMAX (Life Technologies). Alternatively, MDA-MB-231 cells were mock transfected and treated with vehicle (DMSO) or 5 (5, 50, 500, 5000 nM). Cell culture supernatant was removed at 24 h. The Human IFN-γ ELISA Kit (Bon Opus Biosciences: BE010020) was used to measure interferon gamma levels from the supernatants, per the manufacturer's instructions.

[3] = DMPK: plasma levels in C57BL/6 mice; type: in vivo, mouse; details: i.p., 10 mg/kg
Protocol: DMPK Measurements: Male C57BL/6 mice (n=3, 5-7 weeks) were used for pharmacokinetics (PK) assessment. Mice were dosed i.p. (10 mg/kg) with 5 in a formulation of DMSO/Tween-80/H2O (10/10/80) and blood (25 μL) was drawn at 0.25, 0.5, 1, 2, 4, 6, 8, and 24 h time points. Detection of compound levels in blood plasma was determined using LC/MS-MS on a QTRAP 5500 LC-MS/MS System (AB Sciex).

RNase L = molecular target: T1, RNase L (Homo sapiens, UniProt Q05823); assay: Co-immunoprecipitation of RNase L from treated cells; type: cell-based; design: endogenous in cells; host or cells: MDA-MB-231
T1 sequence (Q05823 1-741): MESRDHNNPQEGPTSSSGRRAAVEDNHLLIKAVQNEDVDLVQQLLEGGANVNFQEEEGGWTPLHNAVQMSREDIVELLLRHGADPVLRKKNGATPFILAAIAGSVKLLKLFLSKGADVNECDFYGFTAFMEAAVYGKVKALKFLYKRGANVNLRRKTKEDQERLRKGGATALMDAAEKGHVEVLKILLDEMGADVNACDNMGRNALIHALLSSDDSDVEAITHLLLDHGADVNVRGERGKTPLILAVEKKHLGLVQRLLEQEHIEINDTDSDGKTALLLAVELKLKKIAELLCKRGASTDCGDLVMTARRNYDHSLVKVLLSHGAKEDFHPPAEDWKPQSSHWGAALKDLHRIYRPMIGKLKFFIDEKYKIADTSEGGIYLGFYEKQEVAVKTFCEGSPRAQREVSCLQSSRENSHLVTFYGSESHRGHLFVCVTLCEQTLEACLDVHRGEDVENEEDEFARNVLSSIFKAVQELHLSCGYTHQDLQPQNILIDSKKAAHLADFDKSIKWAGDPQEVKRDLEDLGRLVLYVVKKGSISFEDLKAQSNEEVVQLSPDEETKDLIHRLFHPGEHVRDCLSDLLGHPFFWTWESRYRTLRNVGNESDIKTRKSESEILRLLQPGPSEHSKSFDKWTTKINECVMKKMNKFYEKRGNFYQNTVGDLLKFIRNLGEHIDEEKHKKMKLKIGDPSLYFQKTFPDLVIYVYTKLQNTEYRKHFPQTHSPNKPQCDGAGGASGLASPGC

CCCN(CC(=O)N(CCC)CC(=O)N(CCC)CC(=O)N(CC(=O)NCCOCCOCCOCCOc1ccc(C=C2SC(Nc3ccccc3)=C(C(=O)OCC)C2=O)cc1O)Cc1cn(CCCNC(=O)CCCOc2ccc(-c3nc4cc(-c5ccc(N6CCN(C)CC6)cc5)ccc4[nH]3)cc2)nn1)C(=O)CN(Cc1cn(CCCNC(=O)CCCOc2ccc(-c3nc4cc(-c5ccc(N6CCN(C)CC6)cc5)ccc4[nH]3)cc2)nn1)C(C)=O [Compound 5]
cleavage sites in labeled pre-miR-21 WT RNA (gel mapping) (pre-miR-21 [1]; 5 and RNase L treatment): Cleavage was observed at U27, G25, C23, and G21 | fluorescence cleavage of pre-miR-21 labeled FRET sensor (pre-miR-21 [1]; with RNase L): dose responsive increase in cleavage | Average pre-miR-21 (pre-miR-21 [2]; 500 nM, 24 h, MDA-MB-231, mean ± s.d. (n = 6)): 16 ± 3.8 pmol | Cleaved pre-miR-21 (pre-miR-21 [2]; 500 nM, 24 h, difference untreated minus treated, mean ± s.d.): 68 ± 6.7 pmol | Turnovers (pre-miR-21 [2]; 500 nM, 24 h, ratio Cleaved pre-miR-21 / 5 Detected, mean ± s.d.): 26 ± 2.5 | moles of pre-miR-21 cleaved by one mole of compound (pre-miR-21 [2]; MDA-MB-231): 26 mol | IFN-7 ELISA (IFN-γ): no activation of the innate antiviral immune response | concentrations maintained in mice (plasma) [3]: low nanomolar concentrations | pre-miR-21 in the enriched fraction of RNase L co-immunoprecipitation (RNase L): increased levels of pre-miR-21 in the enriched fraction | enrichment of pre-miR-210 in RNase L co-immunoprecipitation (RNase L; 200 nM): no enrichment of pre-miR-210 | increase in pre-miR-21 in RNase L co-immunoprecipitation (RNase L; 200 nM): ~3 fold

Reference: patent publication US12617757B2, “Compounds and modules for inhibition of pre-miR-21 and their use in treatment of certain cancers” (University of Florida Research Foundation, Incorporated, priority 2019, dated 2026)
